From patent US20220268782A1, “METHODS FOR PREDICTING AND TREATING CARDIAC DYSFUNCTION” (INSERM (INSTITUT NATIONAL DE LA SANTÉ EAT DE LA RECHERCHE …, priority 2019, published 2022) come the findings set out here.

The subject of this assay is C2C12 myoblasts. Description: PA catabolism and Nrf2-antioxidant pathway in C2C12 cells (Pah, tyrosine, 2-SC). It counts as cell-based. The note with it: data not shown. The procedure:
Cells were washed briefly with ice-cold 1×PBS, scraped in 400 μL T-PER lysis buffer (ThermoFisher) supplemented with 0.1 mM phenylmethylsulphonyl fluoride (PMSF) and protease/phosphatase inhibitor cocktail tablet (ThermoFisher). Pulverised tissue samples (20-30 mg) were lysed in the same buffer accelerated by sonication and passing through a 21 G needle. To pellet any debris, lysates were centrifuged at 10,000 g for 10 minutes at 4° C., with the supernatant transferred to fresh tubes. Protein concentrations were determined with Bradford assay (Biorad) and lysates were diluted to equal concentration with lysis buffer. […]
C2C12 (ATCC® CRL-1772™) myoblasts maintained in DMEM supplemented with L-glutamine (2 mM), penicillin/streptomycin (1%) and 5% fetal bovine serum (FBS) were seeded either at a density of 5×10^4 cells (<50%) per well in 24-well plates or 10^4 cells in 4-well chamber slides. […] Cells were analysed for oxidative stress with MitoSOX™ (mitochondrial superoxide; 5 μM, ThermoFisher Scientific), CellROX™ (cytosolic superoxide; 5 μM, ThermoFisher Scientific), gene or protein expression, or various metabolites (see below).
Levels of reduced glutathione (GSH; ThermoFisher), phenylalanine (BioVision) and tyrosine (BioVision) were determined from cells or plasma, with respective agents/kits following the manufacturer's recommendations. […]

`CC(O)C(O)C1CNc2nc(N)[nH]c(=O)c2N1` (centres unmarked) [BH4, 2-amino-6-(1,2-dihydroxypropyl)-5,6,7,8-tetrahydro-3H-pteridin-4-one]: the “PA catabolism: cellular levels of Pah, tyrosine and 2-succinylcysteine (2-SC)” value was “increased”. Besides, under “BH4-dependent succination”, the “succination-sensitive Nrf2-antioxidant pathway” value was “activation”.
